{"source": "paper PMC10150366", "about": "“Discovery of an In Vivo Chemical Probe for BCL6 Inhibition by Optimization of Tricyclic Quinolinones” (Journal of Medicinal Chemistry, 2023)", "assay_type_in_all_cases": "cell-based", "key": {"KvLQT1/minK": {"molecular_target": "KvLQT1/minK (Homo sapiens, UniProt P51787)", "assay": "SAFETYscan Ion Channel KvLQT1/minK Blocker", "description": "(§1) Supplement jm3c00155_si_002.xlsx, sheet \"SAFETYScan\" | column: RC50 (uM); Max Response"}, "ADRA2A": {"molecular_target": "T1, ADRA2A (Homo sapiens, UniProt P08913)", "T1 sequence (P08913 1-465)": "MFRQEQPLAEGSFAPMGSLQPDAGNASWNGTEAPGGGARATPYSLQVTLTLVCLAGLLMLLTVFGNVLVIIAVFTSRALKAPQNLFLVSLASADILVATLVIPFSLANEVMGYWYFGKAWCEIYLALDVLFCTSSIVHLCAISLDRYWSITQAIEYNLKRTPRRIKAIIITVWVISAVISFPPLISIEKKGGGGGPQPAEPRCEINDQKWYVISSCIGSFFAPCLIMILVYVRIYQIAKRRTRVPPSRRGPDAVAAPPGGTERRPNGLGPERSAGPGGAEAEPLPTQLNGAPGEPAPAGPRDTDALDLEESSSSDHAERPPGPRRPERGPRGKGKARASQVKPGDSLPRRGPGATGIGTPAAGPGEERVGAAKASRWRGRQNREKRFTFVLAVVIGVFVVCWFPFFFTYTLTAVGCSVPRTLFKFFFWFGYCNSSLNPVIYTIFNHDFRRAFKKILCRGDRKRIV", "assay": "SAFETYscan cAMP ADRA2A Antagonist", "description": "as §1"}, "CNR1": {"molecular_target": "CNR1 (Homo sapiens, UniProt P21554)", "sequence (P21554 whole entry)": "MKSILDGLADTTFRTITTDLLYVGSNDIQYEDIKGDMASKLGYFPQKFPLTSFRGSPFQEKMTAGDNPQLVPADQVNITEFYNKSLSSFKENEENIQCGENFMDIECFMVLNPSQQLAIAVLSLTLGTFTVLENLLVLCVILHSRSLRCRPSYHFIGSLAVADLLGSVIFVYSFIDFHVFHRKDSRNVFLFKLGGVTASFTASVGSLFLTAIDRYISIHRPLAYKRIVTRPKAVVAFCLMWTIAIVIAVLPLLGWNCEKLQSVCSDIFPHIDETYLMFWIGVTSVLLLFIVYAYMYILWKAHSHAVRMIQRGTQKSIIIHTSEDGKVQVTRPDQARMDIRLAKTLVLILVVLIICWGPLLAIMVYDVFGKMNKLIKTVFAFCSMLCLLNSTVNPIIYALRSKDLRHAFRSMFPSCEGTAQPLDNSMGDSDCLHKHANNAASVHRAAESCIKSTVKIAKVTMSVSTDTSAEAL", "assay": "SAFETYscan cAMP CNR1 Agonist", "description": "as §1"}, "[1]": {"molecular_target": "T2, BCL6-SMRT (NCOR2) corepressor protein-protein interaction (Homo sapiens, UniProt P41182)", "T2 construct": "DNA encoding full length BCL6 and SMRT; expressed in transfected cells; host or cells: HEK293T", "assay": "NanoBRET cellular assay (HEK293T)", "description": "Test compounds in DMSO or DMSO alone\nconcentration in 0.7% v/v DMSO final.\n(also called NCOR2) corepressor protein-protein interaction. DNA encoding full length BCL6 and SMRT\nfusion proteins BCL6-nanoLuc and SMRT-HaloTag, respectively. HEK293T cells were plated […] in T75\nAt the time of assay, compounds\ndispensing (Labcyte Inc.). Frozen transfected HEK293T cells were thawed, centrifuged and freezing\nDMSO final concentration.\nAfter a short centrifugation the\n(1st emission filter) / 450-80 nm (2nd emission filter). The % inhibition at each test concentration was\nsigmoidal four-parameter logistic fit equation. […]"}}, "note": "Values joined by “and” are separate entries in the source; they are usually repeats but may differ in a detail not shown here. Equal values may be shown once. Read-outs that look alike come from different tables or passages of the source."}
{"smiles": "Cn1c(=O)c2c(c3cc(Nc4ccnc(F)c4Cl)ccc31)N[C@@H](C1CC1)C(F)(F)CO2", "note": "[compound 17, (S)-10-((3-chloro-2-fluoropyridin-4-yl)amino)-2-cyclopropyl-3,3-difluoro-7-methyl-1,2,3,4-tetrahydro-[1,4]oxazepino[2,3-c]quinolin-6(7H)-one]", "values": [{"measurement": "Emax", "setting": "KvLQT1/minK; read-out: Max Response", "result": 12.6, "unit": "%"}, {"measurement": "IC50", "setting": "KvLQT1/minK; read-out: RC50 (IC50)", "result": "> 10", "unit": "µM"}, {"measurement": "IC50", "setting": "ADRA2A", "result": "> 10", "unit": "µM"}, {"measurement": "Emax", "setting": "ADRA2A; ADRA2A, cAMP, Antagonist, read-out: Max Response", "result": 0, "unit": "%"}, {"measurement": "EC50", "setting": "CNR1", "result": "> 10", "unit": "µM"}, {"measurement": "Emax", "setting": "CNR1; CNR1, cAMP, Agonist, read-out: Max Response", "result": 27.3, "unit": "%"}, {"measurement": "IC90", "setting": "[1]; HEK-293T, Table S2, read-out: BCL6 NanoBRET IC90 individual replicates", "result": 0.141, "unit": "µM"}, {"measurement": "calculated free (unbound) cellular IC90", "setting": "[1]; HEK-293T, calculated free cellular IC90 from NanoBRET assay", "result": 0.048, "unit": "µM"}, {"measurement": "IC90", "setting": "[1]; HEK-293T, geometric mean of at least three replicates, read-out: NanoBRET IC90", "result": 0.14, "unit": "µM"}, {"measurement": "BCL6 NanoBRET pIC50 mean", "setting": "[1]; Table S2", "result": 7.6643}, {"measurement": "IC50", "setting": "[1]; geometric mean of at least three replicates, read-out: NanoBRET IC50", "result": 0.022, "unit": "µM"}, {"measurement": "IC50", "setting": "[1]; single replicates, Table S2, listed as CCT374705, 17, read-out: BCL6 NanoBRET IC50 individual replicates", "result": "0.0218 µM and 0.0222 µM"}, {"measurement": "IC50", "setting": "[1]; single replicates, Table S2, read-out: BCL6 NanoBRET IC50 individual replicates", "result": "0.0251 µM and 0.0173 µM and 0.0243 µM and 0.0184 µM and 0.0209 µM and 0.0242 µM and 0.0771 µM and 0.0156 µM and 0.0111 µM and 0.0154 µM and 0.0407 µM and 0.0253 µM and 0.0232 µM and 0.013 µM and 0.0326 µM and 0.0295 µM and 0.0101 µM and 0.0121 µM and 0.0442 µM and 0.0197 µM and 0.0146 µM and 0.0252 µM"}, {"measurement": "IC50", "setting": "[1]; supplement, read-out: BCL6 NanoBRET IC50 Geometric Mean", "result": 0.0217, "unit": "µM"}]}
